Laboratory results taken from patent US8460904B2, “Method of producing reduced coenzyme Q10” (Zhejiang Zhongning Business Co., Ltd., priority 2008, dated 2013).

Tests used:
[1] = Stability / shelf life of the obtained reduced coenzyme Q10; format: physicochemical
[2] = Water-solubility after phosphorylation; format: physicochemical; conditions: usable on injection

**Q.** Which shelf life ([1]; below 50° C.) does the source give for `COc1c(O)c(C)c(C/C=C(\C)CC/C=C(\C)CC/C=C(\C)CC/C=C(\C)CC/C=C(\C)CC/C=C(\C)CC/C=C(\C)CC/C=C(\C)CC/C=C(\C)CCC=C(C)C)c(O)c1OC` [reduced coenzyme Q10] here?
**A.** over 2 years

**Q.** And the “stability in phosphoric acid solution” value ([1]; phosphoric acid solution of pH6.0-8.2)?
**A.** remains its qualities

**Q.** What about the water-solubility [2] of the same compound?
**A.** completely water soluble
